Test results: patent US20260167623A1 (NIKANG THERAPEUTICS, INC., priority 2022, published 2026)
pIC50: −log10 of the molar value.

Target: T1, CDK2 (Homo sapiens, UniProt P24941)
T1 construct: High-Throughput Measurement of Cellular Endogenous CDK2; endogenous in cells; host or cells: OVCAR3
Test: Inhibition of CDK2: phospho-Rb (S807/811) HTRF measurement in OVCAR3 cells, 24 h
Type: cell-based
Conditions: 24 h compound treatment, read-out: pRB_OVCAR3_24h
Procedure, shortened: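 OVCAR3 cells, seeded overnight, were exposed to compounds at 0.3 to 10,000 nM for 24 h, then lysed. Rb S807/811 phosphorylation read by HTRF (665/620 nm ratio) after 4 h detection at room temperature; data normalized to DMSO and IC50 from four-parameter logistic fit.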

| pIC50 | SMILES |
| --- | --- |
| 6.30 to 7.00 | Cn1nc(N2CCC(=O)NC2=O)c2cc(F)c(N3CCN(CC4CCN(c5cccc(S(=O)(=O)N6CCC(Nc7ncc(C(F)(F)F)cn7)CC6)c5)CC4)CC3)cc21 [Example 110, 1-(5-fluoro-1-methyl-6-(4-((1-(3-((4-((5-(trifluoromethyl)pyrimidin-2-yl)amino)-piperidin-1 - yl)sulfonyl)phenyl)piperidin-4-yl)methyl)piperazin-1-yl)-1H-indazol-3-yl)dihydropyrimidine-2,4(1H,3H)-dione] |
| 5.60 to 6.30 | O=C1CCC(N2C(=O)c3cc(F)c(N4CCN(CC5CCN(c6cccc(S(=O)(=O)N7CCC(Nc8ncc(Cl)cn8)CC7)c6)CC5)CC4)cc3C2=O)C(=O)N1 (stereo not shown) [Example 79, 5-(4-((1-(3-((4-((5-chloropyrimidin-2-yl)amino)piperidin-1-yl)sulfonyl)phenyl)-piperidin-4-yl)methyl)piperazin-1-yl)-2-(2,6-dioxopiperidin-3-yl)-6-fluoroisoindoline-1,3-dione] |
| 5.60 to 6.30 | CC(Cc1cccc(S(=O)(=O)N2CCC(Nc3ncc(Cl)cn3)CC2)c1)CN1CCN(c2cc3c(cc2F)C(=O)N(C2CCC(=O)NC2=O)C3)CC1 (stereo not shown) [Example 97, 3-(5-(4-(3-(3-((4-((5-chloropyrimidin-2-yl)amino)piperidin-1-yl)sulfonyl)phenyl)-2-methylpropyl)piperazin-1-yl)-6-fluoro-1-oxoisoindolin-2-yl)piperidine-2,6-dione] |
| < 5.60 | Cn1nc(N2CCC(=O)NC2=O)c2ccc(N3CCC(NCc4cccc(S(=O)(=O)N5CCC(Nc6ncc(Cl)cn6)CC5)c4)CC3)cc21 [Example 84, 1-(6-(4-((3-((4-((5-chloropyrimidin-2-yl)amino)piperidin-1-yl)sulfonyl)benzyl)-amino)piperidin-1-yl)-1-methyl-1H-indazol-3-yl)dihydropyrimidine-2,4(1H,3H)-dione] |
| 6.30 to 7.00 | O=C1CCC(N2Cc3cc(N4CCC(N5CC(Oc6cccc(S(=O)(=O)N7CCC(Nc8ncc(C(F)(F)F)cn8)CC7)c6)C5)CC4)ccc3C2=O)C(=O)N1 (stereo not shown) [Example 45, 3-(1-ox0-5-(4-(3-(3-((4-((5-(trifluoro-methyl)pyrimidin-2-yl)amino)piperidin-1-yl)sulfonyl)phenoxy)azetidin-1-yl)piperidin-1-yl)isoindolin-2-yl)piperidine-2,6-dione] |
| 6.30 to 7.00 | Cn1nc(N2CCC(=O)NC2=O)c2cccc(C3CCN(CC4CCN(c5cccc(S(=O)(=O)N6CCC(Nc7ncc(C(F)(F)F)cn7)CC6)c5)CC4)CC3)c21 [Example 145, 1-(1-methyl-7-(1-((1-(3-((4-((5-(trifluoro-methyl)pyrimidin-2-yl)amino)piperidin-1-yl)sulfonyl)phenyl)piperidin-4-yl)methyl)-piperidin-4-yl)-1H-indazol-3-yl)dihydropyrimidine-2,4(1H,3H)-dione] |
| 5.60 to 6.30 | Cn1nc(N2CCC(=O)NC2=O)c2ccc(C3CCN(Cc4ccc(S(=O)(=O)N5CCC(Nc6ncc(OC(F)F)cn6)CC5)cc4)CC3)c(F)c21 [Example 242, 1-(6-(1-(4-((4-((5-(difluoromethoxy)pyrimidin-2-yl)amino)piperidin-1-yl)sulfonyl)benzyl)piperidin-4-yl)-7-fluoro-1-methyl-1H-indazol-3-yl)dihydropyrimidine-2,4(1H,3H)-dione] |
| 5.60 to 6.30 | O=C1CCN(c2ccc(N3CCN(Cc4cccc(S(=O)(=O)N5CCC(Nc6ncc(C(F)(F)F)cn6)CC5)c4)CC3)cc2)C(=O)N1 [Example 82, 1-(4-(4-(3-((4-((5-(trifluoromethyl)-pyrimidin-2-yl)amino)piperidin-1-yl)sulfonyl)benzyl)piperazin-1-yl)phenyl) dihydropyrimidine-2,4(1H,3H)-dione] |
| 7.00 to 9.00 | Cn1nc(N2CCC(=O)NC2=O)c2ccc(C3CCN(Cc4ccc(-c5cccc(S(=O)(=O)N6CCC(Nc7ncc(Cl)cn7)CC6)c5)cc4)CC3)cc21 [Example 122] |
| 6.30 to 7.00 | O=C1CCC(N2Cc3cc(C4CN(Cc5cccc(S(=O)(=O)N6CCC(Nc7ncc(C(F)(F)F)cn7)CC6)c5)C4)ccc3C2=O)C(=O)N1 (stereo not shown) [Example 48, 3-(1-oxo-5-(1-(3-((4-((5-(trifluoromethyl)-pyrimidin-2-yl)amino)piperidin-1-yl)sulfonyl)benzyl)azetidin-3-yl)isoindolin-2-yl)piperidine-2,6-dione] |
| 6.30 to 7.00 | N#Cc1ccc(S(=O)(=O)N2CCC(Nc3ncc(Cl)cn3)CC2)cc1N1CCC(CN2CCN(c3ccc4c(c3)CN(C3CCC(=O)NC3=O)C4=O)CC2)CC1 (stereo not shown) [Example 200, 4-((4-((5-chloropyrimidin-2-yl)amino)piperidin-1-yl)sulfonyl)-2-(4-((4-(2-(2,6-dioxopiperidin-3-yl)-1-oxoisoindolin-5-yl)piperazin-1-yl)methyl)piperidin-1-yl)benzonitrile] |
| 5.60 to 6.30 | CCOC(=O)C1(CN2CCC(c3ccc4c(N5CCC(=O)NC5=O)nn(C)c4c3)CC2)CCN(c2cccc(S(=O)(=O)N3CCC(Nc4ncc(Cl)cn4)CC3)c2)CC1 [Example 141, ethyl 1-(3-((4-((5-chloropyrimidin-2-yl)amino)piperidin-1-yl)sulfonyl)phenyl)-4-((4-(3-(2,4-dioxotetrahydropyrimidin-1(2H)-yl)-1-methyl-1H-indazol-6-yl)piperidin-1-yl)methyl)piperidine-4-carboxylate] |
| 6.30 to 7.00 | Cn1nc(N2CCC(=O)NC2=O)c2ccc(N3CC4CCC(C3)N4CC3CCN(c4cccc(S(=O)(=O)N5CCC(Nc6ncc(Cl)cn6)CC5)c4)CC3)cc21 [Example 114, 1-(6-(8-((1-(3-((4-((5-chloropyrimidin-2-yl)amino)piperidin-1-yl)sulfonyl)phenyl)-piperidin-4-yl)methyl)-3,8-diaza-bicyclo[3.2.1]octan-3-yl)-1-methyl-1H-indazol-3-yl)dihydropyrimidine-2,4(1H,3H)-dione] |
| 6.30 to 7.00 | Cn1nc(N2CCC(=O)NC2=O)c2ccc(C3CCN(C[C@@H]4CCCN4c4cc(S(=O)(=O)N5CCC(Nc6ncc(OC(F)F)cn6)CC5)ccc4C#N)CC3)cc21 [Example 256, (S)-4-((4-((5-(difluoromethoxy)pyrimidin-2-yl)amino)piperidin-1-yl)sulfonyl)-2-(2-((4-(3-(2,4-dioxotetrahydropyrimidin-1(2H)-yl)-1-methyl-1H-indazol-6-yl)piperidin-1-yl)methyl)pyrrolidin-1-yl)benzonitrile] |
| 7.00 to 9.00 | Cn1nc(N2CCC(=O)NC2=O)c2ccc(C3CCN(CC4CCN(c5cccc(S(=O)(=O)N6CCC(Nc7ncc(OC(F)F)cn7)CC6)c5)CC4)CC3)cc21 [Example 112, 1-(6-(1-((1-(3-((4-((5-(difluoromethoxy)-pyrimidin-2-yl)amino)piperidin-1-yl)sulfonyl)phenyl)piperidin-4-yl)methyl)piperidin-4-yl)-1-methyl-1H-indazol-3-yl)dihydropyrimidine-2,4(1H,3H)-dione] |
| < 5.60 | Cn1nc(N2CCC(=O)NC2=O)c2ccc(N3CCC(CN4CC5CCC(C4)N5c4cccc(S(=O)(=O)N5CCC(Nc6ncc(Cl)cn6)CC5)c4)CC3)cc21 [Example 191, 1-(6-(4-((8-(3-((4-((5-chloropyrimidin-2-yl)amino)piperidin-1-yl)sulfonyl)phenyl)-3,8-diazabicyclo[3.2.1]octan-3-yl)methyl)piperidin-1-yl)-1-methyl-1H-indazol-3-yl)dihydropyrimidine-2,4(1H,3H)-dione] |
| 6.30 to 7.00 | Cn1nc(N2CCC(=O)NC2=O)c2ccc(N3CCN(CC4CCN(c5cccc(S(=O)(=O)N6CCC(Nc7ncc(Cl)cn7)CC6)c5)CC4)CC3(C)C)cc21 [Example 159, 1-(6-(4-((1-(3-((4-((5-chloropyrimidin-2-yl)amino)piperidin-1-yl)sulfonyl)phenyl)piperidin-4-yl)methyl)-2,2-dimethylpiperazin-1-yl)-1-methyl-1H-indazol-3-yl)dihydropyrimidine-2,4(1H,3H)-dione] |
| 5.60 to 6.30 | Cn1nc(N2CCC(=O)NC2=O)c2ccc(C3CCN(Cc4ccc(C5CCCN(S(=O)(=O)N6CCC(Nc7ncc(Cl)cn7)CC6)C5)cc4)CC3)cc21 (stereo not shown) [Example 157, 1-(6-(1-(4-(1-((4-((5-chloropyrimidin-2-yl)amino)piperidin-1-yl)sulfonyl)piperidin-3-yl)benzyl)piperidin-4-yl)-1-methyl-1H-indazol-3-yl)dihydropyrimidine-2,4(1H,3H)-dione] |
| 6.30 to 7.00 | O=C1CCC(Nc2ccc(N3CCN(CC4CCN(c5cccc(S(=O)(=O)N6CCC(Nc7ncc(C(F)(F)F)cn7)CC6)c5)CC4)CC3)cc2)C(=O)N1 (stereo not shown) [Example 133, 3-((4-(4-((1-(3-((4-((5-(trifluoromethyl)-pyrimidin-2-yl)amino)piperidin-1-yl)sulfonyl)phenyl)piperidin-4-yl)methyl)piperazin-1-yl)phenyl)amino)-piperidine-2,6-dione] |
| < 5.60 | Cn1nc(N2CCC(=O)NC2=O)c2ccc(N3CCC(CN4C5CCC4CN(c4cccc(S(=O)(=O)N6CCC(Nc7ncc(Cl)cn7)CC6)c4)C5)CC3)cc21 [Example 166, 1-(6-(4-((3-(3-((4-((5-chloropyrimidin-2-yl)amino)piperidin-1-yl)sulfonyl)phenyl)-3,8-diazabicyclo[3.2.1]octan-8-yl)methyl)piperidin-1-yl)-1-methyl-1H-indazol-3-yl)dihydropyrimidine-2,4(1H,3H)-dione] |
| < 5.60 | CO[C@@H]1CN(S(=O)(=O)c2cccc(N3CCC(CN4CCC(c5ccc6c(N7CCC(=O)NC7=O)nn(C)c6c5)CC4)CC3)c2)CC[C@H]1Nc1ncc(Cl)cn1 (racemic) [Example 219, Rac-1-(6-(1-((1-(3-(((3R,4R)-4-((5-chloropyrimidin-2-yl)amino)-3-methoxypiperidin-1-yl)sulfonyl)phenyl)piperidin-4-yl)methyl)piperidin-4-yl)-1-methyl-1H-indazol-3-yl)dihydropyrimidine-2,4(1H,3H)-dione] |
| 6.30 to 7.00 | CC(Cc1cccc(S(=O)(=O)N2CCC(Nc3ncc(C(F)(F)F)cn3)CC2)c1)CN1CCN(c2cc3c(cc2F)C(=O)N(C2CCC(=O)NC2=O)C3)CC1 (stereo not shown) [Example 96, 3-(6-fluoro-5-(4-(2-methyl-3-(3-((4-((5-(trifluoromethyl)pyrimidin-2-yl)amino)-piperidin-1-yl)sulfonyl)phenyl)propyl)-piperazin-1-yl)-1-oxoisoindolin-2-yl)piperidine-2,6-dione] |
